# Reference: the supplement of paper PMC10307832
# How the values were obtained:
# Assay in all cases: relative viability (nuclei count vs DMSO), 5 days (fraction); higher = more cells survive
# NCI-H2009 = test system: NCI-H2009
# In short: (§1)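 Each reported value is a median over duplicate plates. It expresses relative viability: treated-well nuclei count divided by vehicle-well nuclei count. Lung cancer cell lines in 1536-well plates were dosed by pin tool a day after seeding, alone with one drug or with a fixed anchor-drug dose plus five library-drug doses (not always all listed) in √10 steps, and nuclei were counted after 5 days.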
# NCI-H441 = test system: NCI-H441
# In short: as §1
# HARA = test system: HARA
# In short: as §1
# NCI-H1651 = test system: NCI-H1651
# In short: as §1
# SW 1573 = test system: SW 1573
# In short: as §1
# LOU-NH91 = test system: LOU-NH91
# In short: as §1
# NCI-H727 = test system: NCI-H727
# In short: as §1
# NCI-H23 = test system: NCI-H23
# In short: as §1
# NCI-H838 = test system: NCI-H838
# In short: as §1
# NCI-H1975 = test system: NCI-H1975
# In short: as §1
# LC-2-ad = test system: LC-2-ad
# In short: as §1
# NCI-H650 = test system: NCI-H650
# In short: as §1
# UMC-11 = test system: UMC-11
# In short: as §1
# NCI-H2170 = test system: NCI-H2170
# In short: as §1
# NCI-H2087 = test system: NCI-H2087
# In short: as §1
# NCI-H1650 = test system: NCI-H1650
# In short: as §1
# H3255 = test system: H3255
# In short: as §1
# NCI-H2228 = test system: NCI-H2228
# In short: as §1
# SW 900 = test system: SW 900
# In short: as §1
# NCI-H2085 = test system: NCI-H2085
# In short: as §1
# EPLC-272H = test system: EPLC-272H
# In short: as §1
# PC-3 [JPC-3] = test system: PC-3 [JPC-3]
# In short: as §1
# NCI-H2023 = test system: NCI-H2023
# In short: as §1
smiles,measurement,setting,value
CCNC(=O)c1noc(-c2cc(C(C)C)c(O)cc2O)c1-c1ccc(CN2CCOCC2)cc1 [Luminespib] + COc1cccc2cc(-c3nc([C@H]4CC[C@H](C(=O)O)CC4)n4ncnc(N)c34)[nH]c12 [OSI-027] (partner 0.5 µM),relative viability,NCI-H2009; first compound 0.002 µM,0.773
same,relative viability,NCI-H2009; first compound 0.006325 µM,0.534
same,relative viability,NCI-H2009; first compound 0.02 µM,0.518
same,relative viability,NCI-H2009; first compound 0.06325 µM,0.0609
same,relative viability,NCI-H2009; first compound 0.2 µM,0.0769
same,relative viability,NCI-H441; first compound 0.002 µM,0.655
same,relative viability,NCI-H441; first compound 0.006325 µM,0.588
same,relative viability,NCI-H441; first compound 0.02 µM,0.286
same,relative viability,NCI-H441; first compound 0.06325 µM,0.142
same,relative viability,NCI-H441; first compound 0.2 µM,0.16
same,relative viability,HARA; first compound 0.002 µM,0.511
same,relative viability,HARA; first compound 0.006325 µM,0.281
same,relative viability,HARA; first compound 0.02 µM,0.381
same,relative viability,HARA; first compound 0.06325 µM,0.0542
same,relative viability,HARA; first compound 0.2 µM,0.0658
same,relative viability,NCI-H1651; first compound 0.002 µM,0.818
same,relative viability,NCI-H1651; first compound 0.006325 µM,0.622
same,relative viability,NCI-H1651; first compound 0.02 µM,0.42
same,relative viability,NCI-H1651; first compound 0.06325 µM,0.377
same,relative viability,NCI-H1651; first compound 0.2 µM,0.18
same,relative viability,SW 1573; first compound 0.002 µM,0.633
same,relative viability,SW 1573; first compound 0.006325 µM,0.549
same,relative viability,SW 1573; first compound 0.02 µM,0.199
same,relative viability,SW 1573; first compound 0.06325 µM,0.0962
same,relative viability,SW 1573; first compound 0.2 µM,0.09
same,relative viability,LOU-NH91; first compound 0.002 µM,0.684
same,relative viability,LOU-NH91; first compound 0.006325 µM,0.74
same,relative viability,LOU-NH91; first compound 0.02 µM,0.492
same,relative viability,LOU-NH91; first compound 0.06325 µM,0.319
same,relative viability,LOU-NH91; first compound 0.2 µM,0.295
same,relative viability,NCI-H727; first compound 0.002 µM,0.72
same,relative viability,NCI-H727; first compound 0.006325 µM,0.549
same,relative viability,NCI-H727; first compound 0.02 µM,0.463
same,relative viability,NCI-H727; first compound 0.06325 µM,0.33
same,relative viability,NCI-H727; first compound 0.2 µM,0.23
same,relative viability,NCI-H23; first compound 0.002 µM,0.503
same,relative viability,NCI-H23; first compound 0.006325 µM,0.508
same,relative viability,NCI-H23; first compound 0.02 µM,0.322
same,relative viability,NCI-H23; first compound 0.06325 µM,0.133
same,relative viability,NCI-H23; first compound 0.2 µM,0.136
same,relative viability,NCI-H838; first compound 0.002 µM,0.391
same,relative viability,NCI-H838; first compound 0.006325 µM,0.375
same,relative viability,NCI-H838; first compound 0.02 µM,0.275
same,relative viability,NCI-H838; first compound 0.06325 µM,0.134
same,relative viability,NCI-H838; first compound 0.2 µM,0.149
same,relative viability,NCI-H1975; first compound 0.002 µM,0.746
same,relative viability,NCI-H1975; first compound 0.006325 µM,0.677
same,relative viability,NCI-H1975; first compound 0.02 µM,0.187
same,relative viability,NCI-H1975; first compound 0.06325 µM,0.0795
same,relative viability,NCI-H1975; first compound 0.2 µM,0.0958
same,relative viability,LC-2-ad; first compound 0.002 µM,0.806
same,relative viability,LC-2-ad; first compound 0.006325 µM,0.822
same,relative viability,LC-2-ad; first compound 0.02 µM,0.569
same,relative viability,LC-2-ad; first compound 0.06325 µM,0.259
same,relative viability,LC-2-ad; first compound 0.2 µM,0.28
same,relative viability,NCI-H650; first compound 0.002 µM,0.477
same,relative viability,NCI-H650; first compound 0.006325 µM,0.545
same,relative viability,NCI-H650; first compound 0.02 µM,0.378
same,relative viability,NCI-H650; first compound 0.06325 µM,0.368
same,relative viability,NCI-H650; first compound 0.2 µM,0.109
same,relative viability,UMC-11; first compound 0.002 µM,0.538
same,relative viability,UMC-11; first compound 0.006325 µM,0.42
same,relative viability,UMC-11; first compound 0.02 µM,0.303
same,relative viability,UMC-11; first compound 0.06325 µM,0.224
same,relative viability,UMC-11; first compound 0.2 µM,0.207
same,relative viability,NCI-H2170; first compound 0.002 µM,0.739
same,relative viability,NCI-H2170; first compound 0.006325 µM,0.698
same,relative viability,NCI-H2170; first compound 0.02 µM,0.488
same,relative viability,NCI-H2170; first compound 0.06325 µM,0.23
same,relative viability,NCI-H2170; first compound 0.2 µM,0.173
same,relative viability,NCI-H2087; first compound 0.002 µM,0.553
same,relative viability,NCI-H2087; first compound 0.006325 µM,0.454
same,relative viability,NCI-H2087; first compound 0.02 µM,0.157
same,relative viability,NCI-H2087; first compound 0.06325 µM,0.125
same,relative viability,NCI-H2087; first compound 0.2 µM,0.0972
same,relative viability,NCI-H1650; first compound 0.002 µM,0.717
same,relative viability,NCI-H1650; first compound 0.006325 µM,0.44
same,relative viability,NCI-H1650; first compound 0.02 µM,0.163
same,relative viability,NCI-H1650; first compound 0.06325 µM,0.0992
same,relative viability,NCI-H1650; first compound 0.2 µM,0.148
same,relative viability,H3255; first compound 0.002 µM,0.596
same,relative viability,H3255; first compound 0.006325 µM,0.628
same,relative viability,H3255; first compound 0.06325 µM,0.577
same,relative viability,H3255; first compound 0.2 µM,0.249
same,relative viability,NCI-H2228; first compound 0.002 µM,0.576
same,relative viability,NCI-H2228; first compound 0.006325 µM,0.459
same,relative viability,NCI-H2228; first compound 0.02 µM,0.116
same,relative viability,NCI-H2228; first compound 0.06325 µM,0.109
same,relative viability,NCI-H2228; first compound 0.2 µM,0.0698
same,relative viability,SW 900; first compound 0.002 µM,0.502
same,relative viability,SW 900; first compound 0.006325 µM,0.471
same,relative viability,SW 900; first compound 0.02 µM,0.131
same,relative viability,SW 900; first compound 0.06325 µM,0.0999
same,relative viability,SW 900; first compound 0.2 µM,0.0789
same,relative viability,NCI-H2085; first compound 0.002 µM,0.793
same,relative viability,NCI-H2085; first compound 0.006325 µM,0.779
same,relative viability,NCI-H2085; first compound 0.02 µM,0.395
same,relative viability,NCI-H2085; first compound 0.06325 µM,0.242
same,relative viability,NCI-H2085; first compound 0.2 µM,0.233
same,relative viability,EPLC-272H; first compound 0.002 µM,0.261
same,relative viability,EPLC-272H; first compound 0.006325 µM,0.26
same,relative viability,EPLC-272H; first compound 0.06325 µM,0.27
same,relative viability,EPLC-272H; first compound 0.2 µM,0.122
same,relative viability,PC-3 [JPC-3]; first compound 0.002 µM,0.813
same,relative viability,PC-3 [JPC-3]; first compound 0.006325 µM,0.718
same,relative viability,PC-3 [JPC-3]; first compound 0.02 µM,0.583
same,relative viability,PC-3 [JPC-3]; first compound 0.06325 µM,0.58
same,relative viability,PC-3 [JPC-3]; first compound 0.2 µM,0.225
same,relative viability,NCI-H2023; first compound 0.002 µM,0.44
same,relative viability,NCI-H2023; first compound 0.006325 µM,0.374
same,relative viability,NCI-H2023; first compound 0.02 µM,0.131
same,relative viability,NCI-H2023; first compound 0.06325 µM,0.0545
same,relative viability,NCI-H2023; first compound 0.2 µM,0.0624
